We go through 2 compounds from US11987543B1, “8-(4-bromobenzylideneamino)naphthalene-1,3-disulfonic acid as an antioxidant compound” (KING FAISAL UNIVERSITY, priority 2023, dated 2024).

This assay is described as follows: DPPH radical scavenging antioxidant test. The settings on record: for A (absorbance read against a blank at 517 nm) / Inhibition (radical scavenging inhibition): 0.2 mL DPPH (0.75 mM), compound 3 μM in ethanol, 30 min incubation in the dark. The assay is classed as biochemical. On the procedure: The antioxidant properties of the 8-(4-bromobenzylideneamino)naphthalene-1,3-disulfonic acid were studied by adding 0.2 mL DPPH (0.75 mM)) to compound 8-(4-bromobenzylideneamino)naphthalene-1,3-disulfonic acid (III) (3 μM) in ethanol. After 30 min of incubation in the dark, the absorbance was read against a blank at 517 nm. Ascorbic acid (vitamin C) was used as standard antioxidants (positive control). A blank sample was prepared by 0.2 ml of DPPH in 3 ml ethanol. A negative control sample was run using ethanol instead of the sample. The radical scavenging inhibition was calculated using the following equation: […]

On to `O=S(=O)(O)c1cc(S(=O)(=O)O)c2c(/N=C/c3ccc(Br)cc3)cccc2c1` [Product III, 8-(4-bromobenzylideneamino)naphthalene-1,3-disulfonic acid], for which the “A (absorbance read against a blank at 517 nm)” value is listed as 0.21. The “Inhibition (radical scavenging inhibition)” value (517 nm) was found to be 50%. The “antioxidant potential compared to vitamin C (in words)” value (DPPH in vitro test, vitamin C as positive control, 517 nm) is reported as “high potential as an antioxidant compared to vitamin C”.
On to `O=C1O[C@H]([C@@H](O)CO)C(O)=C1O` [vit c, Ascorbic acid, reference compound], for which the “A (absorbance read against a blank at 517 nm)” value is listed as 0.12. Also, the “Inhibition (radical scavenging inhibition)” value (517 nm) is reported as 74%.
